US9706777B2

Test system: Alternaria solani
Test: Alternaria test (tomatoes)/preventive
Conditions: 100 ppm a.i.; preventive spray on young tomato plants; evaluated 3 days after inoculation; 0% = untreated control, 100% = no disease
Description: The degree of efficacy, expressed in % is denoted.
In this case, the efficacy which was actually observed must be greater than the value for the expected efficacy (E) calculated from the abovementioned formula.
After the spray coating has dried on, the plants are inoculated with an aqueous spore suspension of Alternaria solani. The plants are then placed in an incubation cabinet at approximately 20° C. and a relative atmospheric humidity of 100%.
The test is evaluated 3 days after the inoculation.

`C#CCOc1ccc(CCNC(=O)C(OCC#C)c2ccc(Cl)cc2)cc1OC` (stereo not shown) [F206 mandipropamid, mandipropamid] was tested. Which “Efficacy in % found” value did it give?
The value was 0%.
